Measured values from patent US7862836B2, “Phosphorus binder for treatment of kidney disease” (Biolink Life Sciences, Inc., priority 2005, dated 2011).
Read-outs that look alike come from different tables or passages of the source.

What was measured:
Stability during storage = format: physicochemical
[1] = Sheikh et al., cited from earlier work; for Observed in vitro Pi Binding, %: pH 6.0
[2] = mean of triplicate
Procedure: The pH of each solution was adjusted to the desired value by the addition of concentrated hydrochloric acid or sodium hydroxide, as appropriate.
The separation was performed on a Dionex AS11 Cation-Exchange HPLC column integrated with an Agilent Series 1100 HPLC system, and detection of the anionic species was enabled using a Dionex ED50 Electrochemical Detector, operating in Conductivity Mode. Limits of Detection and Quantitation were enhanced through the use of a Dionex Anion Self-Regenerating Suppressor. After assay-specific development and verification of assay performance were completed, the analysis of phosphate and succinate or acetate was performed by sampling the test solution and diluting it, if necessary, to a concentration within the linear range of the Assay. The sample was then injected onto the HPLC column and eluted with a sodium hydroxide gradient. Data were acquired using Agilent ChemStation® software.
The test or control binder was dissolved in deionized water to a volume of 30 mL. The binder solution was added to the phosphorus solution to give a final volume of 600 mL. For each binder study, the phosphorus solutions were titrated by addition of concentrated HCl or NaOH to two different initial pH levels: 4 and 6. […] This was expressed as percent of the total phosphorus present in the original solution. […]

[3] = cited from earlier work
[4] = test system: parathyroid hormone (PTH) secretion; conditions: maintenance dialysis patients; cited from earlier work
[5] = cited from earlier work; remark: listed apart in the source
[6] = in many patients; cited from earlier work
[7] = Solubility in water of cationic phosphate binders (Table 1)
[8] = 600 mg oral, cited from earlier work
[9] = cited from earlier work; for Fractional phosphorus absorption / Net phosphorus absorption: mean ± SE
[10] = hemodialysis or peritoneal dialysis patients; cited from earlier work

O=C(O)CCCC[C@@H]1CCSS1 [(R)-(+)-lipoic acid]
stability during storage (Stability during storage): even more unstable during storage

O=C([O-])CC(O)(CC(=O)[O-])C(=O)[O-].O=C([O-])CC(O)(CC(=O)[O-])C(=O)[O-].[Ca+2].[Ca+2].[Ca+2] [Calcium Citrate]
Observed in vitro Pi Binding, % [1]: 10% | Observed in vitro Pi Binding ([1]; pH 6.5): 20% at pH 6.5 (NOTE 2)

O=C([O-])CCC(=O)[O-].[Ca+2] [Calcium Succinate]
Observed in vitro Pi Binding, % ([2]; pH 4.0): 59.4% | Observed in vitro Pi Binding, % ([2]; pH 6.0): 94.0%

[Mg+2].[OH-].[OH-] [Magnesium Hydroxide]
serum Pi levels ([3]; avg 734 mg elemental Mg/day, 3-5 weeks, control (no binders) 9.0 mg/dL): 8.1 mg/dL | mean serum Mg levels ([3]; avg 734 mg elemental Mg/day, dialysate Mg 1.2 to 1.8 mg/dl): 4.32 mg/dL | patients who developed diarrhea ([3]; nine hemodialysis patients): Four of nine | suppressing parathyroid hormone (PTH) secretion [4]: Neither the combination of oral calcium carbonate/magnesium hydroxide nor magnesium hydroxide alone was effective | serum Pi levels ([5]; avg 991 mg elemental Mg daily, dialysate lacking Mg, rose from 4.3): 6.1 mg/dL | serum Mg level (average) ([5]; during Mg(OH)2 treatment): 4.3 mg/dL | severe hyperkalemia [6]: ≤ 8 mEq/L

[O]=[Mg] [Magnesium Oxide]
Hydrophile? [7]: No

O=C(O)CCCCC1CCSS1 (centres unmarked) [lipoic acid, 1,2-dithiolane-3-pentanoic acid]
safety when ingested by patients with kidney disease [8]: safe | pharmacokinetics, influence of renal function ([8]; severely reduced kidney function or ESRD vs healthy): not influenced by creatinine clearance | stability during storage (Stability during storage): unstable during storage

O=C([O-])CCCC[C@@H]1CCSS1.O=C([O-])CCCC[C@@H]1CCSS1.[Mg+2] [magnesium (R)-(+)-lipoate]
stability during storage (Stability during storage): stable during storage

Calcium Gluconate
Observed in vitro Pi Binding, % [1]: 90%

Magnesium Acetate
fractional absorption of dietary Pi ([9]; 50 mEq of the salt, reduced from 77%): 34% | Pi absorption from ingesta ([9]; 77 mEq per os, 75% with placebo, normal subjects): 28% | fractional magnesium absorption ([9]; highest magnesium intake): 11% | fractional magnesium absorption ([9]; lowest magnesium intake): 65% | Fractional phosphorus absorption ([9]; standard meal + 10.2 mEq MgAc): 55.8 ± 2.8 % | Net phosphorus absorption ([9]; standard meal + 10.2 mEq MgAc): 7.5 ± 0.4 mmol | Fractional phosphorus absorption ([9]; standard meal + 19.4 mEq MgAc): 47.1 ± 3.4 % | Net phosphorus absorption ([9]; standard meal + 19.4 mEq MgAc): 6.3 ± 0.5 mmol | Fractional phosphorus absorption ([9]; standard meal + 39.0 mEq MgAc): 37.0 ± 5.4^|| % | Net phosphorus absorption ([9]; standard meal + 39.0 mEq MgAc): 4.8 ± 0.7^|| mmol | Fractional phosphorus absorption ([9]; standard meal + 77.2 mEq MgAc): 28.1 ± 4.8^¶ % | Net phosphorus absorption ([9]; standard meal + 77.2 mEq MgAc): 3.8 ± 0.6^¶ mmol

choline magnesium trisalicylate
effect on serum Pi levels [10]: no effect

magnesium lipoate
stability during storage (Stability during storage): stable during storage
